From patent US12084436B2, “Heterocyclic compound” (Takeda Pharmaceutical Company Limited, priority 2019, dated 2024)

Biological target: T1, HDAC6 enzyme (Homo sapiens, UniProt Q9UBN7)
T1 construct: prepared by transducing full length HDAC6 gene into Sf-9 insect cells; GST; purchased SignalChem; host or cells: Sf-9 insect cells
T1 sequence (Q9UBN7 1-1215): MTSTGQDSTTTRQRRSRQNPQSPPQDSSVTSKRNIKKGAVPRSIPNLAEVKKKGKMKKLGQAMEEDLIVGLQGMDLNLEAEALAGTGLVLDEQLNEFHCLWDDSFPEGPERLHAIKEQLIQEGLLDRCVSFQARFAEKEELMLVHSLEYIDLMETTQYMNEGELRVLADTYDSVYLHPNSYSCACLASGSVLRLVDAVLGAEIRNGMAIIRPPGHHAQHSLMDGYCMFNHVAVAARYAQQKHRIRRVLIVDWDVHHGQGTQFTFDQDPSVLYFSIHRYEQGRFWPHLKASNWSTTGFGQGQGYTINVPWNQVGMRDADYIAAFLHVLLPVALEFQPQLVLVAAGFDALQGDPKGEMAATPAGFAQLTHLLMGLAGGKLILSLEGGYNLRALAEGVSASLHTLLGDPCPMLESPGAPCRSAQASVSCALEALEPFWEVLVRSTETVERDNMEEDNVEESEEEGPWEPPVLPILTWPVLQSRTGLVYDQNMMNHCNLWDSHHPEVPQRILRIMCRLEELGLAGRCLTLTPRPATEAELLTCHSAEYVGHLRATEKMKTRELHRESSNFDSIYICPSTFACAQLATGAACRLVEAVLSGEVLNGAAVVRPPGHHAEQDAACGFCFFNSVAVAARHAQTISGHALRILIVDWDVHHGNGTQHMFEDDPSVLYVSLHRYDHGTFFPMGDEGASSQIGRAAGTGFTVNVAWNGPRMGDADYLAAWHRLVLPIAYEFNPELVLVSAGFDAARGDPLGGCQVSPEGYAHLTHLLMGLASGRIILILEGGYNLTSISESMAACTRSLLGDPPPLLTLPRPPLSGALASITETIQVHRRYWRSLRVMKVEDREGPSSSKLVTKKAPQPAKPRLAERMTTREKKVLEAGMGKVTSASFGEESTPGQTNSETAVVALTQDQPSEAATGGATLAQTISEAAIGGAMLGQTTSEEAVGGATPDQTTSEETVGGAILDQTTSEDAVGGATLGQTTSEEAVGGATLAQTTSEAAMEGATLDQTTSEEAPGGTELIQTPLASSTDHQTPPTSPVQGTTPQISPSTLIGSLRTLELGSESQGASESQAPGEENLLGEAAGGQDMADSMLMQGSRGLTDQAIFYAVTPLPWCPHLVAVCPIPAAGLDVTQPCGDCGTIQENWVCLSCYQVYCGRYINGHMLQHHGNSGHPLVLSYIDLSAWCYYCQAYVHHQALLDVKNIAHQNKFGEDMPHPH
Assay: HDAC6 enzyme inhibitory assay (HDAC-Glo I/II Assay kit, luminescence)
Assay type: biochemical
Conditions: 10 μM test compound, wells without enzyme = 100% inhibition; for inhibition at 10 µM: read-out: HDAC6 inhibitory rate (%) (10 μM)
Outline: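 Full-length human HDAC6, GST-purified from Sf-9 cells, was preincubated with compound for 60 min at room temperature in Tris-HCl pH 7.5 buffer with glutathione and Tween-20. Substrate-developer was then added, and luminescence was read after 20 min at room temperature. Inhibition was expressed relative to no-enzyme wells, taken as 100% inhibition.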

inhibition at 10 µM [%]	HDAC6 inhibitory rate (%) (10 μM) (10 µM)	SMILES
99		O=C(OC1CCOC1)N(Cc1ccc(F)cc1)N1Cc2ccc(-c3nnc(C(F)F)o3)cc2C1=O (stereo not shown) [Example 26c, oxolan-3-yl {6-[5-(difluoromethyl)-1,3,4-oxadiazol-2-yl]-1-oxo-1,3-dihydro-2H-isoindol-2-yl}[(4-fluorophenyl)methyl]carbamate]
99		N#Cc1ccc(Cn2ccnc2-c2cc(-c3nnc(C(F)F)o3)ccn2)cc1F [Example 75a, 4-[(2-{4-[5-(difluoromethyl)-1,3,4-oxadiazol-2-yl]pyridin-2-yl}-1H-imidazol-1-yl)methyl]-2-fluorobenzonitrile]
98		Fc1cc(-c2nnc(C(F)F)o2)cc(-c2nccn2Cc2cncnc2)c1 [Example 25a, 5-[(2-{3-[5-(difluoromethyl)-1,3,4-oxadiazol-2-yl]-5-fluorophenyl}-1H-imidazol-1-yl)methyl]pyrimidine]
71		O=C1c2cc(-c3nnc(C(F)F)o3)ccc2OCN1Cc1ccccc1 [Example 5b, 3-benzyl-6-[5-(difluoromethyl)-1,3,4-oxadiazol-2-yl]-2,3-dihydro-4H-1,3-benzoxazin-4-one]
100		CN(Cc1ccccc1N1CCOCC1)N1Cc2ccc(-c3nnc(C(F)F)o3)cc2C1=O [Example 58c, 6-[5-(difluoromethyl)-1,3,4-oxadiazol-2-yl]-2-(methyl{[2-(morpholin-4-yl)phenyl]methyl}amino)-2,3-dihydro-1H-isoindol-1-one]
97		Fc1cccc(Cc2ncnn2-c2cc(-c3nnc(C(F)F)o3)ccn2)c1 [Example 89a, 4-[5-(difluoromethyl)-1,3,4-oxadiazol-2-yl]-2-{5-[(3-fluorophenyl)methyl]-1H-1,2,4-triazol-1-yl}pyridine]
98		N#Cc1ccc(Cn2ccnc2-c2cc(F)cc(-c3nnc(C(F)F)o3)c2)cn1 [Example 66a, 5-[(2-{3-[5-(difluoromethyl)-1,3,4-oxadiazol-2-yl]-5-fluorophenyl]-1H-imidazol-1-yl)methyl]pyridine-2-carbonitrile]
100		COc1ccccc1Cn1ccnc1-c1cc(-c2nnc(C(F)F)o2)ccn1 [Example 84a, 4-[5-(difluoromethyl)-1,3,4-oxadiazol-2-yl]-2-{1-[(2-methoxyphenyl)methyl}-1H-imidazol-2-yl}pyridine]
100		Cc1ccc(C2(C)Oc3ccc(-c4nnc(C(F)F)o4)cc3C(=O)N2C)cc1 (stereo not shown) [Example 22b, 6-[5-(difluoromethyl)-1,3,4-oxadiazol-2-yl]-2,3-dimethyl-2-(4-methylphenyl)-2,3-dihydro-4H-1,3-benzoxazin-4-one]
68		O=C1COCC(Cc2ccccn2)N1c1cc(F)cc(-c2nnc(C(F)F)o2)c1 (stereo not shown) [Example 42a]
99		O=C1NN(C2CCC(F)(F)CC2)Cc2ccc(-c3nnc(C(F)F)o3)cc21 [Example 29b, 3-(4,4-difluorocyclohexyl)-7-[5-(difluoromethyl)-1,3,4-oxadiazol-2-yl]-3,4-dihydrophthalazin-1(2H)-one]
100		CC1(c2ccc(F)cc2)Oc2ccc(-c3nnc(C(F)F)o3)cc2C(=O)N1CC(F)F (stereo not shown) [Example 56b, 3-(2,2-difluoroethyl)-6-[5-(difluoromethyl)-1,3,4-oxadiazol-2-yl]-2-(4-fluorophenyl)-2-methyl-2,3-dihydro-4H-1,3-benzoxazin-4-one]
99		Fc1cccc(Cn2ccnc2-c2cc(F)cc(-c3nnc(C(F)F)o3)c2)c1 [Example 44a, 2-(difluoromethyl)-5-(3-fluoro-5-{1-[(3-fluorophenyl)methyl]-1H-imidazol-2-yl}phenyl)-1,3,4-oxadiazole]
101		CN1C(=O)c2cc(-c3nnc(C(F)F)o3)cnc2CC1(C)c1ccc(F)c(F)c1 (stereo not shown) [Example 38b, 3-[5-(difluoromethyl)-1,3,4-oxadiazol-2-yl]-7-(3,4-difluorophenyl)-6,7-dimethyl-7,8-dihydro-1,6-naphthyridin-5(6H)-one]
98		Cc1cc(Cn2ccnc2-c2cc(F)cc(-c3nnc(C(F)F)o3)c2)n(C)n1 [Example 64a, 2-(difluoromethyl)-5-(3-{1-[(1,3-dimethyl-1H-pyrazol-5-yl)methyl]-1H-imidazol-2-yl}-5-fluorophenyl)-1,3,4-oxadiazole]
90		O=C1c2cc(-c3nnc(C(F)F)o3)ccc2CN1NCC(F)(F)F [Example 31c, 6-[5-(difluoromethyl)-1,3,4-oxadiazol-2-yl]-2-[(2,2,2-trifluoroethyl)amino]-2,3-dihydro-1H-isoindol-1-one]
100		CC(=O)Nc1ccc(CN(C)N2Cc3ccc(-c4nnc(C(F)F)o4)cc3C2=O)cc1 [Example 52c, N-(4-{[{6-[5-(difluoromethyl)-1,3,4-oxadiazol-2-yl]-1-oxo-1,3-dihydro-2H-isoindol-2-yl}(methyl)amino]methyl}phenyl) acetamide]
98		Fc1cc(-c2nnc(C(F)F)o2)cc(-c2nccn2CC2CCOCC2)c1 [Example 30a, 2-(difluoromethyl)-5-(3-fluoro-5-{1-[(oxan-4-yl)methyl]-1H-imidazol-2-yl}phenyl)-1,3,4-oxadiazole]
100		CCN1C(=O)c2cc(-c3nnc(C(F)F)o3)ccc2OC1(C)c1ccc(F)cc1 (stereo not shown) [Example 45b, 6-[5-(difluoromethyl)-1,3,4-oxadiazol-2-yl]-3-ethyl-2-(4-fluorophenyl)-2-methyl-2,3-dihydro-4H-1,3-benzoxazin-4-one]
99		CN1C(=O)c2cc(-c3nnc(C(F)F)o3)ccc2O[C@]1(C)c1ccccc1 [Example 6b, (2R)-6-[5-(difluoromethyl)-1,3,4-oxadiazol-2-yl]-2,3-dimethyl-2-phenyl-2,3-dihydro-4H-1,3-benzoxazin-4-one]
	100	CN1C(=O)c2cc(-c3nnc(C(F)F)o3)ccc2OC1(C)c1ccc(C#N)cc1 (single isomer, unassigned; isomer 2) [Example 37b, 4-{6-[5-(difluoromethyl)-1,3,4-oxadiazol-2-yl]-2,3-dimethyl-4-oxo-3,4-dihydro-2H-1,3-benzoxazin-2-yl}benzonitrile (optical isomer 2)]
99		O=C1c2cc(-c3nnc(C(F)F)o3)ccc2CN1NCc1ccc(F)cn1 [Example 15c, 6-[5-(difluoromethyl)-1,3,4-oxadiazol-2-yl]-2-{[(5-fluoropyridin-2-yl)methyl]amino}-2,3-dihydro-1H-isoindol-1-one]
101		COc1cccc(Cn2ccnc2-c2cc(-c3nnc(C(F)F)o3)ccn2)c1 [Example 81a, 4-[5-(difluoromethyl)-1,3,4-oxadiazol-2-yl]-2-{1-[(3-methoxyphenyl)methyl]-1H-imidazol-2-yl}pyridine]
98		Cc1cc(Cn2ccnc2-c2cc(F)cc(-c3nnc(C(F)F)o3)c2)no1 [Example 61a, 2-(difluoromethyl)-5-(3-fluoro-5-{1-[(5-methyl-1,2-oxazol-3-yl)methyl]-1H-imidazol-2-yl}phenyl)-1,3,4-oxadiazole]
96		Fc1cc(-c2nnc(C(F)F)o2)cc(-c2nccn2Cc2cccnn2)c1 [Example 26a]
95		O=C1c2cc(-c3nnc(C(F)F)o3)ccc2CN1NC1CCCCC1 [Example 29c, 2-(cyclohexylamino)-6-[5-(difluoromethyl)-1,3,4-oxadiazol-2-yl]-2,3-dihydro-1H-isoindol-1-one]
42		CN1C(=O)c2cc(-c3nnc(C(F)F)o3)ccc2C[C@@]1(C)c1ccc(F)c(F)c1 [Example 49b, (3S)-7-[5-(difluoromethyl)-1,3,4-oxadiazol-2-yl]-3-(3,4-difluorophenyl)-2,3-dimethyl-3,4-dihydroisoquinolin-1(2H)-one]
101		CN1C(=O)c2cc(-c3nnc(C(F)F)o3)ccc2C[C@]1(C)c1ccc(F)c(F)c1 [Example 50b, (3R)-7-[5-(difluoromethyl)-1,3,4-oxadiazol-2-yl]-3-(3,4-difluorophenyl)-2,3-dimethyl-3,4-dihydroisoquinolin-1(2H)-one]
